# Target: T1, hyaluronidase (Bos taurus, UniProt Q2YDK3)
# T1 sequence (Q2YDK3 36-553): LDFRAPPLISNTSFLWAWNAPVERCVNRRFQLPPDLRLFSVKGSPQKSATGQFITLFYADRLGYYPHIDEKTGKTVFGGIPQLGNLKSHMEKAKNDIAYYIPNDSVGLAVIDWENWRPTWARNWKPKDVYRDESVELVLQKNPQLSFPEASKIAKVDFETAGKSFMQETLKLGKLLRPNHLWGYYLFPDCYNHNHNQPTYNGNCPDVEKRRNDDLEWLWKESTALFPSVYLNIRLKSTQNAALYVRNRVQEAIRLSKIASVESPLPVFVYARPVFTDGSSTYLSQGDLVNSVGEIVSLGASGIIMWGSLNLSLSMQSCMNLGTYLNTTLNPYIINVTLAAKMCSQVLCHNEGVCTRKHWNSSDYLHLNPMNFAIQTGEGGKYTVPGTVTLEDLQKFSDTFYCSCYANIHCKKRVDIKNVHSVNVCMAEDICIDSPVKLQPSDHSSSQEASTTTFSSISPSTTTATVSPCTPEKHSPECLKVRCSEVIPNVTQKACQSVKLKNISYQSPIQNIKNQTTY
# Experiment: Hyaluronidase activity inhibition
# Format: biochemical
# Details: pH 4.0, 37° C.
# Experimental: 5 μL of a hyaluronidase enzyme solution (MP Biomedicals, 4 mg/mL, 100 mM sodium acetate buffer (pH 4.0)) was added to 10 μL of an aqueous solution containing polysaccharides at an optional concentration, which was prepared from the polysaccharide sample containing the neutral polysaccharide fractions and the acidic polysaccharide fractions, the neutral polysaccharide fractions, and the acidic polysaccharide fractions, which were exopolysaccharides produced by the strain IJH-SONE68 and obtained in Example 4. The resultant mixture was incubated at 37° C. for 20 minutes. Thereafter, to the mixture, 10 μL of an enzyme-activating solution (0.5 mg/ml Compound 48/80 (manufactured by MP Biomedicals)), 3.75 mg CaCl2.2H2O, and 100 mM sodium acetate buffer (pH 4.0)) were added, and incubated again at 37° C. for 20 minutes. Subsequently, to the resultant mixture, 25 μL of a sodium hyaluronate solution (Wako Pure Chemical Industries, 0.8 mg/mL, 100 mM sodium acetate buffer (pH 4.0)) was added, and further reacted at 37° C. for 40 minutes. After the reaction, the reaction was terminated by adding 10 μL of 0.4 M NaOH aqueous solution. […] 40 μL of the reaction solution was mixed with 200 μL of p-DMAB solution (described below), the mixture was reacted at 37° C. for 20 minutes, and the absorbance at 585 nm was then measured. […]
smiles,measurement,value
CC1(C)[C@@H](O[C@H]2O[C@H](C(=O)[O-])[C@@H](O)[C@H](O)[C@H]2O[C@@H]2O[C@H](C(=O)[O-])[C@@H](O)[C@H](O)[C@H]2O)CC[C@]2(C)[C@H]3C(=O)C=C4[C@@H]5C[C@@](C)(C(=O)O)CC[C@]5(C)CC[C@@]4(C)[C@]3(C)CC[C@@H]12.[K+].[K+] [Dipotassium glycyrrhizinate],Hyaluronidase activity inhibition IC50,530 µg/mL

# — US11447740B2, “Lactic acid bacterium and use thereof” (Sone Farm Co., Ltd., priority 2017, dated 2022)
